Drawing on patent US20240199587A1, “HETEROCYCLIC COMPOUNDS” (Hoffmann-La Roche Inc., priority 2021, published 2024), this text covers IC50 for 26 compounds.

Each structure is given as a SMILES string. pIC50: −log10 of the molar value.

This experiment deals with T1, MAGL (Homo sapiens, UniProt Q99685).
T1 sequence (Q99685 1-303): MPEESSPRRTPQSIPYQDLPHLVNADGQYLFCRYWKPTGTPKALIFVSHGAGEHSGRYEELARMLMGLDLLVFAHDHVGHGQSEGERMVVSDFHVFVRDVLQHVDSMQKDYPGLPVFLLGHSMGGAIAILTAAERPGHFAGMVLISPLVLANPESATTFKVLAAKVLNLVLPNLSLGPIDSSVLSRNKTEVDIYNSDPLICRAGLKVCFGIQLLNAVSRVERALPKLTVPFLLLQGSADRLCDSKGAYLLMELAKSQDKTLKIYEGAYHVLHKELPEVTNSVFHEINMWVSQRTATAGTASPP
Briefly: 2-AG assay (MAGL inhibitory activity, hydrolysis of 2-arachidonoylglycerol to arachidonic acid followed by mass spectrometry). It is filed as biochemical. As to conditions: 8 μM 2-arachidonoylglycerol, 15 min pre-incubation, 30 min incubation at RT, RapidFire MS readout. The essentials:
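Human MAGL ([…] final) pre-incubated 15 min at RT with compound in 50 mM TRIS, 1 mM EDTA, 0.01% Tween-20, 2.5% DMSO; 8 μM 2-AG then added for 30 min at RT. Acetonitrile quench with d8-arachidonic acid; arachidonic acid measured by RapidFire SPE–MS/MS, activity from arachidonic acid/d8 ratio.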
As usually defined, the pIC50 is the negative decadic logarithm of the IC50, by convention in mol/L. Read a low pIC50 as a high IC50. `CS(=O)(=O)c1ccc(CC2CC3(C2)CN(C(=O)N2CC4(CC(n5cnc(C6CC6)n5)C4)C2)C3)nc1` [Example 488, [6-(3-cyclopropyl-1,2,4-triazol-1-yl)-2-azaspiro[3.3]heptan-2-yl]-[6-[(5-methylsulfonyl-2-pyridyl)methyl]-2-azaspiro[3.3]heptan-2-yl]methanone] had a pIC50 of 8.36.
As for `CS(=O)(=O)c1cncc(CC2CC3(C2)CN(C(=O)N2CC4(CC(n5cnc(C6CC6)n5)C4)C2)C3)c1` [Example 489, [6-(3-cyclopropyl-1,2,4-triazol-1-yl)-2-azaspiro[3.3]heptan-2-yl]-[6-[(5-methylsulfonyl-3-pyridyl)methyl]-2-azaspiro[3.3]heptan-2-yl]methanone], the figure is 8.48; as for `CS(=O)(=O)c1cccc(CC2CC3(C2)CN(C(=O)N2CC4(CC(n5cnc(C6(O)CC6)n5)C4)C2)C3)c1` [Example 490, [6-[3-(1-hydroxycyclopropyl)-1,2,4-triazol-1-yl]-2-azaspiro[3.3]heptan-2-yl]-[6-[(3-methylsulfonylphenyl)methyl]-2-azaspiro[3.3]heptan-2-yl]methanone], 8.17; as for `CS(=O)(=O)c1ccc(CC2CC3(C2)CN(C(=O)N2CC4(CC(n5cnc(C6(O)CC6)n5)C4)C2)C3)cc1` [Example 491, [6-[3-(1-hydroxycyclopropyl)-1,2,4-triazol-1-yl]-2-azaspiro[3.3]heptan-2-yl]-[6-[(4-methylsulfonylphenyl)methyl]-2-azaspiro[3.3]heptan-2-yl]methanone], 8.17.
`O=C(N1CC(c2ccc(NC3(C(F)(F)F)CC3)nc2)C1)N1CC2(CC(n3cnc(C4(O)CC4)n3)C2)C1` [Example 492, [6-[3-(1-hydroxycyclopropyl)-1,2,4-triazol-1-yl]-2-azaspir[3.3]heptan-2-yl]-[3-[6-[[1-(trifluoromethyl)cyclopropyl]amino]-3-pyridyl]azetidin-1-yl]methanone] had a negative logarithm of the IC50 (pIC50) of 7.96.
As for `O=C(N1CC2(CC(Cc3ccc(C(F)(F)F)nc3)C2)C1)N1CC2(CC(n3cnc(C4(O)CC4)n3)C2)C1` [Example 495, [6-[3-(1-hydroxycyclopropyl)-1,2,4-triazol-1-yl]-2-azaspiro[3.3]heptan-2-yl]-[6-[[6-(trifluoromethyl)-3-pyridyl]methyl]-2-azaspiro[3.3]heptan-2-yl]methanone], the figure is 9.01.
As for `O=C(N1CC(c2ccc(N3CC(C(F)(F)F)C3)nc2)C1)N1CC2(CC(n3cnc(C4(O)CC4)n3)C2)C1` [Example 496, [6-[3-(1-hydroxycyclopropyl)-1,2,4-triazol-1-yl]-2-azaspiro[3.3]heptan-2-yl]-[3-[6-[3-(trifluoromethyl)azetidin-1-yl]-3-pyridyl]azetidin-1-yl]methanone], the figure is 8.03; as for `O=C(N1CC2(CC(n3cnc(C4(O)CC4)n3)C2)C1)N1CC2(C1)CN(S(=O)(=O)c1cccc(OC(F)(F)F)c1)C2` [Example 497, [6-[3-(1-hydroxycyclopropyl)-1,2,4-triazol-1-yl]-2-azaspiro[3.3]heptan-2-yl]-[2-[3-(trifluoromethoxy)phenyl]sulfonyl-2,6-diazaspiro[3.3]heptan-6-yl]methanone], 7.08.
`O=C(N1CC(OCc2cccc(S(=O)(=O)C(F)(F)F)c2)C1)N1CC2(CC(n3cnc(C4CC4)n3)C2)C1` [Example 498, [6-(3-cyclopropyl-1,2,4-triazol-1-yl)-2-azaspiro[3.3]heptan-2-yl]-[3-[[3-(trifluoromethylsulfonyl)phenyl]methoxy]azetidin-1-yl]methanone] had a pIC50 of 8.77.
For `O=C(N1CC(OCc2ccc(S(=O)(=O)C(F)(F)F)cc2)C1)N1CC2(CC(n3cnc(C4CC4)n3)C2)C1` [Example 499, [6-(3-cyclopropyl-1,2,4-triazol-1-yl)-2-azaspiro[3.3]heptan-2-yl]-[3-[[4-(trifluoromethylsulfonyl)phenyl]methoxy]azetidin-1-yl]methanone], the negative logarithm of the IC50 (pIC50) was 8.36.
`CS(=O)(=O)c1ccc(CN2CC3(C2)CN(C(=O)N2CC4(CC(n5cnc(C6CC6)n5)C4)C2)C3)cc1` [Example 500, [6-(3-cyclopropyl-1,2,4-triazol-1-yl)-2-azaspiro[3.3]heptan-2-yl]-[6-[(4-methylsulfonylphenyl)methyl]-2,6-diazaspiro[3.3]heptan-2-yl]methanone] had a pIC50 of 7.40.
For the compound `CS(=O)(=O)c1cccc(CN2CC3(C2)CN(C(=O)N2CC4(CC(n5cnc(C6CC6)n5)C4)C2)C3)c1` [Example 501, [6-(3-cyclopropyl-1,2,4-triazol-1-yl)-2-azaspiro[3.3]heptan-2-yl]-[6-[(3-methylsulfonylphenyl)methyl]-2,6-diazaspiro[3.3]heptan-2-yl]methanone], the pIC50 is 8.17.
As for `CS(=O)(=O)c1ccccc1CN1CC2(C1)CN(C(=O)N1CC3(CC(n4cnc(C5CC5)n4)C3)C1)C2` [Example 502, [6-(3-cyclopropyl-1,2,4-triazol-1-yl)-2-azaspiro[3.3]heptan-2-yl]-[6-[(2-methylsulfonylphenyl)methyl]-2,6-diazaspiro[3.3]heptan-2-yl]methanone], the figure is 7.92.
The value for `NC(=O)C1CC(F)(F)CCN1c1ccc(C2CN(C(=O)N3CC4(CC(n5cnc(C6CC6)n5)C4)C3)C2)cc1` (centres unmarked) [Example 503, 1-[4-[1-[6-(3-cyclopropyl-1,2,4-triazol-1-yl)-2-azaspiro[3.3]heptane-2-carbonyl]azetidin-3-yl]phenyl]-4,4-difluoro-piperidine-2-carboxamide] was 8.82.
The value for `CC1(O)CN(c2ccc(C3CN(C(=O)N4CC5(CC(n6cnc(C7CC7)n6)C5)C4)C3)cn2)C1` [Example 504, [6-(3-cyclopropyl-1,2,4-triazol-1-yl)-2-azaspiro[3.3]heptan-2-yl]-[3-[6-(3-hydroxy-3-methyl-azetidin-1-yl)-3-pyridyl]azetidin-1-yl]methanone] was 7.86; that for `O=C(N1CC(c2ccc(NC3CCS(=O)(=O)C3)nc2)C1)N1CC2(CC(n3cnc(C4CC4)n3)C2)C1` (centres unmarked) [Example 505, [6-(3-cyclopropyl-1,2,4-triazol-1-yl)-2-azaspiro[3.3]heptan-2-yl]-[3-[6-[(1,1-dioxothiolan-3-yl)amino]-3-pyridyl]azetidin-1-yl]methanone] was 7.49; that for `O=C(N1CCC(Oc2cccc(F)c2)CC1)N1CC2(CC(n3cnc(C4CC4)n3)C2)C1` [Example 506, [6-(3-cyclopropyl-1,2,4-triazol-1-yl)-2-azaspiro[3.3]heptan-2-yl]-[4-(3-fluorophenoxy)-1-piperidyl]methanone] was 7.12.
For the compound `O=C(N1CC(c2ccc(C3CCC3)cc2)C1)N1CC2(CC(n3cnc(C4CC4)n3)C2)C1` [Example 507, [3-(4-cyclobutylphenyl)azetidin-1-yl]-[6-(3-cyclopropyl-1,2,4-triazol-1-yl)-2-azaspiro[3.3]heptan-2-yl]methanone], the pIC50 was 9.29.
The value for `Cc1cccc(F)c1CCC1CN(C(=O)N2CC3(CC(n4cnc(C5CC5)n4)C3)C2)C1` [Example 508, [6-(3-cyclopropyl-1,2,4-triazol-1-yl)-2-azaspiro[3.3]heptan-2-yl]-[3-[2-(2-fluoro-6-methyl-phenyl)ethyl]azetidin-1-yl]methanone] was 6.19.
For `O=C(N1CC(/C=C/c2cccc(F)c2)C1)N1CC2(CC(n3cnc(C4CC4)n3)C2)C1` [Example 509, [6-(3-cyclopropyl-1,2,4-triazol-1-yl)-2-azaspiro[3.3]heptan-2-yl]-[3-[(E)-2-(3-fluorophenyl)vinyl]azetidin-1-yl]methanone], the negative-log IC50 (pIC50) was 7.39.
The value for `O=C(N1CC2(CC(n3cnc(C4CC4)n3)C2)C1)N1CC2(CC(n3cnc(C4CC4)n3)C2)C1` [Example 510, bis[6-(3-cyclopropyl-1,2,4-triazol-1-yl)-2-azaspiro[3.3]heptan-2-yl]methanone] was 8.34; that for `O=C(N1CC2(CCC(Cc3ccc(OC(F)F)nc3)CC2)C1)N1CC2(CC(c3cncc(F)c3)C2)C1` [Example 511, [7-[[6-(difluoromethoxy)-3-pyridyl]methyl]-2-azaspiro[3.5]nonan-2-yl]-[6-(5-fluoro-3-pyridyl)-2-azaspiro[3.3]heptan-2-yl]methanone] was 6.78.
The value for `O=C(N1CC(Oc2ccc(C(F)(F)F)c(C3CC3)c2)C1)N1CC2(CC(c3cncc(F)c3)C2)C1` [Example 512] was 6.45; that for `O=C(N1CC(OCc2ccc(F)cc2Cl)C1)N1CC2(CC(c3cncc(F)c3)C2)C1` [Example 513, [3-[(2-chloro-4-fluoro-phenyl)methoxy]azetidin-1-yl]-[6-(5-fluoro-3-pyridyl)-2-azaspiro[3.3]heptan-2-yl]methanone] was 5.63.
As for `O=C(N1CC(NCc2ccc(C(F)(F)F)cc2Cl)C1)N1CC2(CC(c3cncc(F)c3)C2)C1` [Example 514, [3-[[2-chloro-4-(trifluoromethyl)phenyl]methylamino]azetidin-1-yl]-[6-(5-fluoro-3-pyridyl)-2-azaspiro[3.3]heptan-2-yl]methanone], the figure is 7.05; as for `O=C(N1CC2(CC(Cc3ccc(C(F)(F)F)nc3)C2)C1)N1CC2(CC(c3cncc(F)c3)C2)C1` [Example 515, [6-(5-fluoro-3-pyridyl)-2-azaspiro[3.3]heptan-2-yl]-[6-[[6-(trifluoromethyl)-3-pyridyl]methyl]-2-azaspiro[3.3]heptan-2-yl]methanone], 7.02.
